# Laboratory results published in patent US10479784B2, “Substituted pyrazin-2-amines as inhibitors of ATR kinase” (Vertex Pharmaceuticals Incorporated, priority 2008, dated 2019).
# Molecular target: full-length ATR (Homo sapiens (Human), UniProt Q13535)
# Assay: ATR Inhibition Assay (radioactive-phosphate incorporation)
# Type: biochemical
# Settings: read-out: ATR Ki
# Summary of the method: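 Ki(app) was derived by non-linear regression of background-corrected initial rates of 33P incorporation into an 800 μM target peptide, read by phosphocellulose filter scintillation counting. Reaction conditions: 5 nM full-length ATR, 10 μM [γ-33P]ATP, pH 7.5 Tris buffer with MgCl2 and DTT, 25 °C, 10-min preincubation, 24 h run.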
# Sequence of full-length ATR (Q13535 whole entry): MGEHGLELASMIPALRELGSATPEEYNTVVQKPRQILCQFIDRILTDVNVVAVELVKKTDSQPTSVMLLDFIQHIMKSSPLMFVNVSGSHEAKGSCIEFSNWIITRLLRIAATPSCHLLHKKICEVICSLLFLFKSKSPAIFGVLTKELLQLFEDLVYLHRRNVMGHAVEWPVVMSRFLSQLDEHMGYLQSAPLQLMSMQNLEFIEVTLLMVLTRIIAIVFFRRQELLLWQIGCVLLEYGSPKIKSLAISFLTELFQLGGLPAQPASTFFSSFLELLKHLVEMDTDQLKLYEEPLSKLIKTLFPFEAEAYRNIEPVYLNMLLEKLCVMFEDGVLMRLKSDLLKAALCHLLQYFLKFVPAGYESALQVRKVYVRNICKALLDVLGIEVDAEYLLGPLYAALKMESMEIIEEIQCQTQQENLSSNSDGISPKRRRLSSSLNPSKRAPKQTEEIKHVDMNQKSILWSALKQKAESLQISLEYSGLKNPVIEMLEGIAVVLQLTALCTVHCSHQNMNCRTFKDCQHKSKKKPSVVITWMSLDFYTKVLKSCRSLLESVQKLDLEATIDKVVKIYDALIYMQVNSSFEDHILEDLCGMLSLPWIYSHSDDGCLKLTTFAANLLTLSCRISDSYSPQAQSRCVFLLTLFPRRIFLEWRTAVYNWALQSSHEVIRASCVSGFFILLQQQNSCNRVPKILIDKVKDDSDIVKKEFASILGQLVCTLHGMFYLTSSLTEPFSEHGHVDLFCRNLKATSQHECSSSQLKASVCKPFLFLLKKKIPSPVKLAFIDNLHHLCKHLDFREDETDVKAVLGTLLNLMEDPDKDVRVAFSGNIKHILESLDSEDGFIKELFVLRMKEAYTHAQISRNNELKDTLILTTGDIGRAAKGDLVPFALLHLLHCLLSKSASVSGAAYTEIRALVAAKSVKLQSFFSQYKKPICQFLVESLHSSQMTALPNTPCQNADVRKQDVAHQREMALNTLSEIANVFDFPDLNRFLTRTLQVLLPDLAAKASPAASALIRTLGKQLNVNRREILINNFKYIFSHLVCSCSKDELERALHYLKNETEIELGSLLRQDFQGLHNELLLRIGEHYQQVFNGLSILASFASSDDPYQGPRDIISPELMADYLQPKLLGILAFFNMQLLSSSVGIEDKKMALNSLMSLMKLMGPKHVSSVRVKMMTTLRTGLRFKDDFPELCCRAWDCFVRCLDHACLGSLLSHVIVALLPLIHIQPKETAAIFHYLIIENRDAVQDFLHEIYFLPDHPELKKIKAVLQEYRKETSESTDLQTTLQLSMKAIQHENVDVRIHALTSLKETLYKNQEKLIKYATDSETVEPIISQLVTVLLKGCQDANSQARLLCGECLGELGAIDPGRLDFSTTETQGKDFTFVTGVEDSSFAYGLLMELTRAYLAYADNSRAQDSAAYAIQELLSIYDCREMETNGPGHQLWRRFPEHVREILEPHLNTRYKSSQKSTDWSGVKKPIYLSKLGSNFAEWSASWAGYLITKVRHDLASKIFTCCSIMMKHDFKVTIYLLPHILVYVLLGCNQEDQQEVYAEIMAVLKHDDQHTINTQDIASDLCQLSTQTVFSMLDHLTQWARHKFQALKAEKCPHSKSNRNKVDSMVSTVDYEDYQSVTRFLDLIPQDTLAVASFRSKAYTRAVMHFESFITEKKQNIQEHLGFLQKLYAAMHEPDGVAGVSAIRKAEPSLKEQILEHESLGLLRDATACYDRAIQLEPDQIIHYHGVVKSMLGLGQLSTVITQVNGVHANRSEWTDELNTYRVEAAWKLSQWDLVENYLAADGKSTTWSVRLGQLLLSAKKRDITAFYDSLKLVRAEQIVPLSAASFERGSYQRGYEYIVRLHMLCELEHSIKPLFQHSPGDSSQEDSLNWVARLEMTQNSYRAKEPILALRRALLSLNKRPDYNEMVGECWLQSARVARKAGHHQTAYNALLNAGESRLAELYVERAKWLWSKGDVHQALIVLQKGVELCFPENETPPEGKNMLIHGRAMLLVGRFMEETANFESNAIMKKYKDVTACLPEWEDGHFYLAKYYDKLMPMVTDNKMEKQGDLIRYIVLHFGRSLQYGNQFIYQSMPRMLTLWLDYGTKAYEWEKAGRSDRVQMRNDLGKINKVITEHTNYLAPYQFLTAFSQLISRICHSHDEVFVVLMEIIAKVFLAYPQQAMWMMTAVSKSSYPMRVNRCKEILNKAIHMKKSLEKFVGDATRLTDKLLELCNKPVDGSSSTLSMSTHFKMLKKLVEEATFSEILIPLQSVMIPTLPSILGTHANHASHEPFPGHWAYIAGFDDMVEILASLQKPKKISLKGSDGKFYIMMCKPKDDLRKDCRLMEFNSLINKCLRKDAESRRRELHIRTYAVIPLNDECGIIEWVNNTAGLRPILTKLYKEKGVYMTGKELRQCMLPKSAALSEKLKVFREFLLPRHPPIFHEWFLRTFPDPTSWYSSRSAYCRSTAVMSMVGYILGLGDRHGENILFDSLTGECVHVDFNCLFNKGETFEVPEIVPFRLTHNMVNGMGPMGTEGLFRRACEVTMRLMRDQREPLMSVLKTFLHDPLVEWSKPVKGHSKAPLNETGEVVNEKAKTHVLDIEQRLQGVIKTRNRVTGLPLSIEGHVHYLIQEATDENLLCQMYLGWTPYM
row,SMILES,Ki
1,"Nc1ncc(-c2cccnc2)nc1-c1nnc(-c2ccccc2)[nH]1 [Compound I-138, 3-(5-phenyl-4H-1,2,4-triazol-3-yl)-5-(pyridin-3-yl)pyrazin-2-amine]",10 to 100 nM
2,"CN(C)C(=O)c1ccc(-c2cnc(N)c(-c3nnc(NC4CCCCC4)o3)n2)cc1 [IA-163, 4-[5-amino-6-[5-(cyclohexylamino)-1,3,4-oxadiazol-2-yl]pyrazin-2-yl]-N,N-dimethyl-benzamide]",100 to 5000 nM
3,"CN(C)C(=O)c1ccc(-c2cnc(N)c(-c3nnc(-c4cccc(N)c4)o3)n2)cc1 [IA-142, 4-[5-amino-6-[5-(3-aminophenyl)-1,3,4-oxadiazol-2-yl]pyrazin-2-yl]-N,N-dimethyl-benzamide]",≤ 10 nM
4,"CS(=O)(=O)c1ccc(-c2cnc(N)c(-c3nc4ccccc4[nH]3)n2)cc1 [Compound I-123, 3-(1H-benzo[d]imidazol-2-yl)-5-(4-(methylsulfonyl)phenyl)pyrazin-2-amine]",10 to 100 nM
5,CN(C)C(=O)c1ccc(-c2cnc(N)c(-c3nnc(Nc4ccc(Cl)cc4)o3)n2)cc1 [IA-42],10 to 100 nM
6,"CN(C)C(=O)c1ccc(-c2cnc(N)c(-c3nnc(-c4ccc(CO)cc4)o3)n2)cc1 [IA-76, 4-[5-amino-6-[5-[4-(hydroxymethyl)phenyl]-1,3,4-oxadiazol-2-yl]pyrazin-2-yl]-N,N-dimethyl-benzamide]",≤ 10 nM
7,"CC(CCN(C)C)S(=O)(=O)c1ccc(-c2cnc(N)c(-c3nnc(-c4ccccc4F)o3)n2)cc1 (stereo not shown) [IA-343, 5-[4-[3-(dimethylamino)-1-methyl-propyl]sulfonylphenyl]-3-[5-(2-fluorophenyl)-1,3,4-oxadiazol-2-yl]pyrazin-2-amine]",≤ 10 nM
8,"CC(C)S(=O)(=O)c1ccc(-c2cnc(N)c(-c3nnc(-c4ccc(N)cc4)o3)n2)cc1 [IA-201, 3-[5-(4-aminophenyl)-1,3,4-oxadiazol-2-yl]-5-(4-isopropylsulfonylphenyl)pyrazin-2-amine]",≤ 10 nM
9,Nc1ncc(-c2cccnc2)nc1C(=O)Nc1ccc2[nH]ccc2c1 [Compound V-17],10 to 100 nM
10,CN1CCN(C(=O)c2ccc(-c3cnc(N)c(-c4nnc(-c5ccccc5)o4)n3)cc2)CC1 [IA-9],≤ 10 nM
11,"CC(C)S(=O)(=O)c1ccc(-c2cnc(N)c(-c3nnc(CCCN)o3)n2)cc1 [IA-91, 3-[5-(3-aminopropyl)-1,3,4-oxadiazol-2-yl]-5-(4-isopropylsulfonylphenyl)pyrazin-2-amine]",100 to 5000 nM
12,"CC(C)[S+]([O-])c1ccccc1-c1cnc(N)c(-c2nnc(-c3ccccc3)o2)n1 (stereo not shown) [IA-136, 5-(2-(isopropylsulfinyl)phenyl)-3-(5-phenyl-1,3,4-oxadiazol-2-yl)pyrazin-2-amine]",10 to 100 nM
13,"Nc1ncc(-c2ccc(C(=O)NCCCO)cc2)nc1-c1nc2ccccc2[nH]1 [Compound I-128, 4-(5-amino-6-(1H-benzo[d]imidazol-2-yl)pyrazin-2-yl)-N-(3-hydroxypropyl)benzamide]",10 to 100 nM
14,CC(C)(C)OC(=O)N1CCCN(C(=O)c2ccc(-c3cnc(N)c(-c4nnc(-c5ccccc5)o4)n3)c(C#N)c2)CC1 [IA-19],≤ 10 nM
15,"CC(C)S(=O)(=O)c1ccc(-c2cnc(N)c(-c3nnc(-c4ccc5c(c4)CCNC5)o3)n2)cc1 [IA-145, 5-(4-isopropylsulfonylphenyl)-3-[5-(1,2,3,4-tetrahydroisoquinolin-6-yl)-1,3,4-oxadiazol-2-yl]pyrazin-2-amine]",≤ 10 nM
16,"CNCc1ccc(-c2cc(-c3nc(-c4ccc(S(=O)(=O)C(C)C)cc4)cnc3N)on2)c(F)c1 [IIA-14, 3-[3-[2-fluoro-4-(methylaminomethyl)phenyl]isoxazol-5-yl]-5-(4-isopropylsulfonylphenyl)pyrazin-2-amine]",≤ 10 nM
17,"CNCc1ccc(-c2nnc(-c3nc(-c4ccc(S(=O)(=O)C(C)C)cc4)cnc3N)o2)cc1O [IA-320, 5-[5-[3-amino-6-(4-isopropylsulfonylphenyl)pyrazin-2-yl]-1,3,4-oxadiazol-2-yl]-2-(methylaminomethyl)phenol]",≤ 10 nM
18,CN(C)C(=O)c1ccc(-c2cnc(N)c(-c3nnc(-c4ccccn4)o3)n2)cc1 [IA-51],10 to 100 nM
19,N#Cc1ccccc1-c1cnc(N)c(-c2nnc(-c3ccccc3)o2)n1 [IA-50],10 to 100 nM
20,"Nc1ncc(-c2ccc3[nH]ncc3c2)nc1C(=O)Nc1ccccc1 [Compound I-39, 3-amino-6-(1H-indazol-5-yl)-N-phenylpyrazine-2-carboxamide]",10 to 100 nM
21,"CS(=O)(=O)c1ccc(-c2cnc(N)c(-c3nc4cccnc4[nH]3)n2)cc1 [Compound I-112, 3-(3H-imidazo[4,5-b]pyridin-2-yl)-5-(4-(methylsulfonyl)phenyl) pyrazin-2-amine]",≤ 10 nM
22,"CN(C)C(=O)c1ccc(-c2cnc(N)c(-c3nnc(NCCc4ccccc4)o3)n2)cc1 [IA-156, 4-[5-amino-6-[5-(phenethylamino)-1,3,4-oxadiazol-2-yl]pyrazin-2-yl]-N,N-dimethyl-benzamide]",100 to 5000 nM
23,"Nc1ncc(-c2cccc3ncccc23)nc1-c1nnc(-c2ccccc2)o1 [IA-260, 3-(5-phenyl-1,3,4-oxadiazol-2-yl)-5-(5-quinolyl)pyrazin-2-amine]",10 to 100 nM

row,SMILES,Ki
1,"Nc1ncc(-c2cccnc2)nc1C(=O)Nc1ccc(F)cc1 [Compound I-94, 3-amino-N-(4-fluorophenyl)-6-(pyridin-3-yl)pyrazine-2-carboxamide]",100 to 5000 nM
2,"CN(C)C(=O)c1ccc(-c2cnc(N)c(-c3nnc(NC(=O)c4ccccc4)o3)n2)cc1 [IA-287, 4-[5-amino-6-(5-benzamido-1,3,4-oxadiazol-2-yl)pyrazin-2-yl]-N,N-dimethyl-benzamide]",100 to 5000 nM
3,Nc1ccccc1-c1cnc(N)c(-c2nnc(-c3ccccc3)o2)n1 [IA-58],10 to 100 nM
4,"CS(=O)(=O)c1ccc(-c2cnc(N)c(-c3nc4ccncc4[nH]3)n2)cc1 [Compound I-120, 3-(3H-imidazo[4,5-c]pyridin-2-yl)-5-(4-(methylsulfonyl)phenyl) pyrazin-2-amine]",10 to 100 nM
5,"CN(C)CCS(=O)(=O)c1ccc(-c2cnc(N)c(-c3nnc(-c4ccccc4)o3)n2)cc1 [IA-169, 5-[4-(2-dimethylaminoethylsulfonyl)phenyl]-3-(5-phenyl-1,3,4-oxadiazol-2-yl)pyrazin-2-amine]",≤ 10 nM
6,"COc1ccccc1NC(=O)c1nc(-c2cccnc2)cnc1N [Compound I-106, 3-amino-N-(2-methoxyphenyl)-6-(pyridin-3-yl)pyrazine-2-carboxamide]",10 to 100 nM
7,"Nc1ncc(-c2ccco2)nc1C(=O)Nc1ccccc1 [Compound I-41, 3-amino-6-(furan-2-yl)-N-phenylpyrazine-2-carboxamide]",100 to 5000 nM
8,Nc1ncc(-c2ccc(C(=O)N3CCCNCC3)cc2)nc1C(=O)Nc1nc2ccccc2o1 [Compound V-5],10 to 100 nM
9,CN(C)[C@@H]1CCN(C(=O)c2ccc(-c3cnc(N)c(-c4nnc(-c5ccccc5)o4)n3)cc2)C1 [IA-10],≤ 10 nM
10,Cn1c(NC(=O)c2nc(-c3ccc(C(=O)N4CCCNCC4)cc3)cnc2N)nc2ccccc21 [Compound V-25],100 to 5000 nM
11,"Nc1ncc(-c2cccc(OC(F)(F)F)c2)nc1-c1nnc(-c2ccccc2)o1 [IA-150, 3-(5-phenyl-1,3,4-oxadiazol-2-yl)-5-[3-(trifluoromethoxy)phenyl]pyrazin-2-amine]",100 to 5000 nM
12,COc1ncccc1NC(=O)c1nc(-c2ccc(S(C)(=O)=O)cc2)cnc1N [VII-1],10 to 100 nM
13,"CC(C)S(=O)(=O)c1ccc(-c2cnc(N)c(-c3nnc(-c4ccc(CCN)cc4)o3)n2)cc1 [IA-107, 3-[5-[4-(2-aminoethyl)phenyl]-1,3,4-oxadiazol-2-yl]-5-(4-isopropylsulfonylphenyl)pyrazin-2-amine]",≤ 10 nM
14,"CC(O)c1cccc(-c2nnc(-c3nc(-c4ccc(C(=O)N(C)C)cc4)cnc3N)o2)c1 (stereo not shown) [IA-275, 4-[5-amino-6-[5-[3-(1-hydroxyethyl)phenyl]-1,3,4-oxadiazol-2-yl]pyrazin-2-yl]-N,N-dimethyl-benzamide]",10 to 100 nM
15,"CNCc1ccc(-c2nnc(-c3nc(-c4ccc(S(=O)(=O)C5CCOCC5)cc4)cnc3N)o2)cc1 [IA-323, 3-[5-[4-(methylaminomethyl)phenyl]-1,3,4-oxadiazol-2-yl]-5-(4-tetrahydropyran-4-ylsulfonylphenyl)pyrazin-2-amine]",≤ 10 nM
16,CS(=O)(=O)c1ccc(-c2cnc(N)c(C(=O)Nc3n[nH]c4ccccc34)n2)cc1 [Compound V-18],100 to 5000 nM
17,"COc1cccc(-c2nnc(-c3nc(-c4ccc(C(=O)N(C)C)cc4)cnc3N)o2)c1 [IA-195, 4-[5-amino-6-[5-(3-methoxyphenyl)-1,3,4-oxadiazol-2-yl]pyrazin-2-yl]-N,N-dimethyl-benzamide]",10 to 100 nM
18,"CC(C)NCc1ccc(-c2nnc(-c3nc(-c4ccc(S(=O)(=O)C(C)C)cc4)cnc3N)o2)s1 [IA-248, 3-[5-[5-[(isopropylamino)methyl]-2-thienyl]-1,3,4-oxadiazol-2-yl]-5-(4-isopropylsulfonylphenyl)pyrazin-2-amine]",≤ 10 nM
19,"CNCc1ccc(-c2nnc(-c3nc(-c4ccc(S(=O)(=O)C5CCOCC5)cc4)cnc3N)o2)c(F)c1 [IA-344, 3-[5-[2-fluoro-4-(methylaminomethyl)phenyl]-1,3,4-oxadiazol-2-yl]-5-(4-tetrahydropyran-4-ylsulfonylphenyl)pyrazin-2-amine]",≤ 10 nM
20,"N#CCc1ccccc1-c1cnc(N)c(-c2nnc(-c3ccccc3)o2)n1 [IA-221, 2-[2-[5-amino-6-(5-phenyl-1,3,4-oxadiazol-2-yl)pyrazin-2-yl]phenyl]acetonitrile]",100 to 5000 nM
21,"CCNCc1ccc(-c2nnc(-c3nc(-c4ccc(S(=O)(=O)C(C)C)cc4)cnc3N)o2)s1 [IA-83, 3-[5-[5-(ethylaminomethyl)-2-thienyl]-1,3,4-oxadiazol-2-yl]-5-(4-isopropylsulfonylphenyl)pyrazin-2-amine]",≤ 10 nM
22,Nc1ncc(-c2ccc(C(=O)N3CCCNCC3)cc2)nc1-c1nnc(-c2ccccc2)o1 [IA-1],≤ 10 nM
23,"CC(C)(C)S(=O)(=O)c1ccc(-c2cnc(N)c(-c3nnc(-c4ccccc4)o3)n2)cc1 [IA-280, 5-(4-tert-butylsulfonylphenyl)-3-(5-phenyl-1,3,4-oxadiazol-2-yl)pyrazin-2-amine]",≤ 10 nM
